Experimental data: ChEMBL document CHEMBL1201862, “PubChem BioAssay data set” (2004)
Activity calls are given as the source filed them.

Key:
[1] = cytotoxicity in HPDE-C7 cells, cell-based, fluorescence, HTS (AID 430); format: functional; conditions: Homo sapiens
[2] = cytotoxicity in KRAS-transformed pancreatic duct cells, primary screen, cell-based, fluorescence, HTS (AID 431); format: functional; conditions: Homo sapiens;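 also: cell line used: HPDE-C7K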
[3] = target: T1, Short transient receptor potential channel 4 (Mus musculus, UniProt Q9QUQ5); assay: TRPC4 positive allosteric modulators, dose response, cell-based, HEK293 TRPC4/mu-opioid, Fluo-4 calcium, EC20 DAMGO (AID 434941); format: functional
T1 sequence (Q9QUQ5 whole entry): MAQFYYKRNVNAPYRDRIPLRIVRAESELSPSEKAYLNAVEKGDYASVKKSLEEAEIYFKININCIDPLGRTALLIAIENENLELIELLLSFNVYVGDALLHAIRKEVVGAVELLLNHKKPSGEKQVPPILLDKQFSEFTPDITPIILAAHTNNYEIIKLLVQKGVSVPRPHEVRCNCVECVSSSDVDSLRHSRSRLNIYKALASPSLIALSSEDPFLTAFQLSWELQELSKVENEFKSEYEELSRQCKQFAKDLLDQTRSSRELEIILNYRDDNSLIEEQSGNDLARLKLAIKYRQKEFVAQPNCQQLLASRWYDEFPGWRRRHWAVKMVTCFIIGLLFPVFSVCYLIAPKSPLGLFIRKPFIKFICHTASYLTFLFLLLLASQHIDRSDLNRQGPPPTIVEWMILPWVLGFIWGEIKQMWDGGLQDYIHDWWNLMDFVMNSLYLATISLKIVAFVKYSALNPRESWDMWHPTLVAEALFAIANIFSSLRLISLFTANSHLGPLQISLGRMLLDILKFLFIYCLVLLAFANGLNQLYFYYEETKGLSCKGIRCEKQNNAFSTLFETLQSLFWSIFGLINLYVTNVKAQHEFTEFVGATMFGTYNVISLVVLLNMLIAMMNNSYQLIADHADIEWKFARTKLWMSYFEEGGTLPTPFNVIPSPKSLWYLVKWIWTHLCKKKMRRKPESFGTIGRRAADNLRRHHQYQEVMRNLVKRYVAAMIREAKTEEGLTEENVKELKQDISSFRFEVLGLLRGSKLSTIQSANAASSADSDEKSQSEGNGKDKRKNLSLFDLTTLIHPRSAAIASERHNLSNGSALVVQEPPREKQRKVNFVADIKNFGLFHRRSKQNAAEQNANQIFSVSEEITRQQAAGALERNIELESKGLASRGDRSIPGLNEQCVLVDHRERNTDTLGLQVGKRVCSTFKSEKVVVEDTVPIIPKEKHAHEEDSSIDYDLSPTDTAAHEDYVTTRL

[4] = target: T2, G-protein coupled receptor 55 (Homo sapiens, UniProt Q9Y2T6); assay: GPR55 agonists via beta-arrestin recruitment, primary screen, imaging, U2OS cells, beta-arrestin-GFP redistribution (AID 1961); format: functional
[5] = system: BJ; assay: cytotoxicity toward BJ-TERT fibroblasts, dose response, cell-based, RAS-independent, luminescence (AID 1933); format: functional; conditions: Homo sapiens
[6] = system: BJ; assay: cells; format: functional, cell-based; conditions: Homo sapiens
[7] = inhibitors of intracellular T. cruzi replication, confirmation, NIH3T3 host cells, beta-gal luminescence (AID 2044); format: functional, cell-based;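 also: intracellular parasites grown in NIH/3T3 mouse fibroblasts as host cells; luminescent beta-galactosidase reporter signal from transgenic T. cruzi replicating inside host cells; inhibitors lower the luminescence signal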
[8] = cytotoxicity toward NIH3T3 fibroblasts, dose response, counter-screen, cell-based, ATP luminescence, mouse fibroblasts (AID 2010); format: functional;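 also: cells exposed to compound for about 90 hours before reading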
[9] = system: BJ; assay: cytotoxicity toward BJ-TERT-LT-ST fibroblasts, dose response, cell-based, RAS-independent, luminescence (AID 1935); format: functional; conditions: Homo sapiens;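 also: BJ fibroblasts immortalized with TERT plus LT and ST oncogenes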
[10] = cytotoxicity toward DRD oncogenic fibroblasts, dose response, cell-based, non-viral oncogenic, luminescence (AID 1934); format: functional; conditions: Homo sapiens
[11] = target: T3, Bcl-2-related protein A1 (Mus musculus, UniProt Q07440); format: functional;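 also: confirmatory dose–response counterscreen on Bfl-1, used to check hits from a UBC13 polyubiquitin inhibitor campaign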
T3 sequence (Q07440 whole entry): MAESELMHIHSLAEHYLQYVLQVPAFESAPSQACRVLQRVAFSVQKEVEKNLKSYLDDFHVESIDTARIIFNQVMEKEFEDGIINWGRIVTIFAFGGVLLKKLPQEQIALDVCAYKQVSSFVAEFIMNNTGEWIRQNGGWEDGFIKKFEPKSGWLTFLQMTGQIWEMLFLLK

[12] = target: T4, Ubiquitin-conjugating enzyme E2 N (Homo sapiens, UniProt P61088); format: functional
T4 sequence (P61088 whole entry): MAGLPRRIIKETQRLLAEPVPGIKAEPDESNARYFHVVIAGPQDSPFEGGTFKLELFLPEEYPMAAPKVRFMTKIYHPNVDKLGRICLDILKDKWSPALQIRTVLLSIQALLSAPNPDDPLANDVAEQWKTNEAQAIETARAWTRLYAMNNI

[13] = target: T4, Ubiquitin-conjugating enzyme E2 N; format: functional; remark: listed apart in the source
[14] = target: T5, Type-1 angiotensin II receptor (Homo sapiens, UniProt P30556); assay: AT1 receptor agonists, dose response, selectivity assay for APJ receptor agonist project, cell-based, uHTS hits (AID 488865); format: functional;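 also: beta-arrestin recruitment to AT1 measured by enzyme fragment complementation luminescence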
T5 sequence (P30556 whole entry): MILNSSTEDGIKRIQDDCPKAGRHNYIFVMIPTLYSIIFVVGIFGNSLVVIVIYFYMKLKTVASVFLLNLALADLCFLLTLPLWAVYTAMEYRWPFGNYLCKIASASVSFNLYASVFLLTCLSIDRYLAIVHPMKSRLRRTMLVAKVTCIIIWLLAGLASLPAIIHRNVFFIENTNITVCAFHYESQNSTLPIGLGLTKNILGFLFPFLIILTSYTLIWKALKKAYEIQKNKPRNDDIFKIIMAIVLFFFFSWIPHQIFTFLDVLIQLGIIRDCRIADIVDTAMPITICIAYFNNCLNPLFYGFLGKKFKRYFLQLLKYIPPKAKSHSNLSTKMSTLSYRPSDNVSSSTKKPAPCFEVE

[15] = inhibitors of HIV Env-driven cell fusion, dose response, cherry-pick (AID 652057); format: functional, cell-based
[16] = CEM21 lymphoblast cell cytotoxicity, dose response, cytotoxicity control for viral fusion inhibitor project, CellTiter-Glo luminescence, cherry-picked (AID 652042); format: functional, cell-based;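 also: potency for signal decrease meaning cytotoxicity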
[17] = ZM109 Env clade C HIV-1 fusion inhibitors, dose response, HeLa effector, CEM target cells, luciferase, cherry-pick (AID 652058); format: functional, cell-based
[18] = off-target signal loss in HeLa-CEM21 co-culture – HeLa F-luc CTL cells, cherry-picked, counter-screen for HIV-1 Env fusion inhibitor project, dose response (AID 652040); format: functional, cell-based;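 also: potency for signal decrease marking cytotoxic or nonspecific inhibition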
[19] = inhibitors of clade B AD8 Env fusion, dose response, cell-based, cherry-pick (AID 652062); format: functional;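 also: luciferase signal from cell-cell fusion driven by HIV-1 clade B AD8 Env; potency is for inhibitors of fusion seen as a drop in luminescence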
[20] = target: T6, Cannabinoid receptor 2 (Homo sapiens, UniProt P34972); assay: SAR analysis of antagonists of the Cannabinoid Receptor 2 using an Image-Based Assay - Set 2. [Related pubchem assays (depositor defined):AID1961, AID1965]; format: functional
[21] = target: T2, G-protein coupled receptor 55; assay: SAR analysis of selective Agonists of GPR55 using an Image-Based Assay - Set 2. [Related pubchem assays (depositor defined):AID1961, AID1965]; format: functional
[22] = target: T6, Cannabinoid receptor 2; assay: SAR analysis of agonists of the Cannabinoid Receptor 2 using an Image-Based Assay - Set 2. [Related pubchem assays (depositor defined):AID1961, AID1965]; format: functional
[23] = target: T7, G-protein coupled receptor 35 (Homo sapiens, UniProt Q9HC97); assay: SAR analysis of Agonists of the GPR35 Receptor using an Image-Based Assay - Set 3. [Related pubchem assays (depositor defined):AID1961, AID1965]; format: functional
[24] = target: T8, Cannabinoid receptor 1 (Homo sapiens, UniProt P21554); assay: SAR analysis of antagonists of the Cannabinoid Receptor 1 using an Image-Based Assay - Set 3. [Related pubchem assays (depositor defined):AID1961, AID1965]; format: functional
[25] = target: T8, Cannabinoid receptor 1; assay: SAR analysis of agonists of the Cannabinoid Receptor 1 using an Image-Based Assay - Set 3. [Related pubchem assays (depositor defined):AID1961, AID1965]; format: functional
[26] = target: T7, G-protein coupled receptor 35; assay: SAR analysis of Antagonists of the GPR35 Receptor using an Image-Based Assay - Set 4. [Related pubchem assays (depositor defined):[…]]; format: functional
[27] = inhibitors of firefly luciferase expression or activity, dose response, H4 neuroglioma cells, luminescence (AID 1990); format: functional, cell-based
[28] = system: HEK293; assay: NOD1 signaling inhibitors, primary screen, cell-based, luminescence, uHTS (AID 1578); format: functional; conditions: Homo sapiens
[29] = system: HEK293; assay: cells; format: functional, cell-based; conditions: Homo sapiens
[30] = Luminescence Cell-Based Dose Response HTS to Identify Inhibitors of 5'UTR Stem-Loop Driven Prion Protein mRNA Translation in H4 Neuroglioblastoma Cells. [Related pubchem assays: 1827 (Project Summary), 1813 (Primary HTS)]; format: functional
[31] = inhibitors of SNCA 5'UTR-driven reporter translation, confirmation, H4 neuroglioma cells, luminescence (AID 1988); format: functional, cell-based
[32] = system: HEK293; assay: cells; format: functional, cell-based; conditions: Homo sapiens; remark: listed apart in the source
[33] = target: Nucleotide-binding oligomerization domain-containing protein 2 (Homo sapiens, UniProt Q9HC29); assay: NOD2 signaling inhibitors, cell-based, luminescence, uHTS, HEK293 (AID 1566); format: functional
[34] = system: HEK293; assay: NOD2 signaling inhibitors in MDP-stimulated cells, cell-based, uHTS, luminescence (AID 2001); format: functional; conditions: Homo sapiens
[35] = system: HEK293; assay: cells; format: functional, cell-based; conditions: Homo sapiens; remark: listed apart in the source
[36] = microbe, parasite or virus in culture; format: functional; conditions: Mycobacterium tuberculosis
[37] = THP-1 cell cytotoxicity, dose response, cytotoxicity control for non-replicating M. tuberculosis project (AID 489025); format: functional
[38] = Vero E6 cell cytotoxicity, dose response, cytotoxicity control for non-replicating M. tuberculosis project, secondary assay (AID 492998); format: functional, VeroE6; conditions: Vero C1008
[39] = cells; format: functional
[40] = system: INS1; assay: beta cell apoptosis inhibitors, cytokine rescue, dose response, luminescence, retest (AID 449756); format: functional, cell-based; conditions: Rattus norvegicus;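 also: cell death triggered by IL-1 beta plus TNF-alpha plus IFN-gamma mixture; protective hits raise ATP signal compared with cytokine alone wells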

T8 sequence (P21554 whole entry): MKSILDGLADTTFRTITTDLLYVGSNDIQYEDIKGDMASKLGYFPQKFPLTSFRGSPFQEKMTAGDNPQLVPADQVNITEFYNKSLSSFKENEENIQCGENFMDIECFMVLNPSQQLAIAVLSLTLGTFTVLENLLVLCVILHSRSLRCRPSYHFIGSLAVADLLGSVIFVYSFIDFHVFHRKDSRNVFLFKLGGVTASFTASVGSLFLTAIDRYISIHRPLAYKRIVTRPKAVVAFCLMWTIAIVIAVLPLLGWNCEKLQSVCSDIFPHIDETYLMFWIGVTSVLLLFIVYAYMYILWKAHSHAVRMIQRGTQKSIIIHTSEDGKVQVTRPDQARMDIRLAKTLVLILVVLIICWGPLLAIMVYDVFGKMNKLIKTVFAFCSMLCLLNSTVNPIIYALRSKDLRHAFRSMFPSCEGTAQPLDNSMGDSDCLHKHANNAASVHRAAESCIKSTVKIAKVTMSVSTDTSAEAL
T2 sequence (Q9Y2T6 whole entry): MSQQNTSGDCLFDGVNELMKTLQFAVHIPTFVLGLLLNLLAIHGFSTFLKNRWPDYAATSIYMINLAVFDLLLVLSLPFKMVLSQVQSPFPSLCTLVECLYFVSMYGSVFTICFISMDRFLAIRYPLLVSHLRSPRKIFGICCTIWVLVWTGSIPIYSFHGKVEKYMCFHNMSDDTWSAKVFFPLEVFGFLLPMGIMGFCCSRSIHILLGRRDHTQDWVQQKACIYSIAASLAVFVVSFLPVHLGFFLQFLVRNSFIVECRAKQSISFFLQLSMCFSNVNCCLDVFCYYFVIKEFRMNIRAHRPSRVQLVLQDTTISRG
T6 sequence (P34972 whole entry): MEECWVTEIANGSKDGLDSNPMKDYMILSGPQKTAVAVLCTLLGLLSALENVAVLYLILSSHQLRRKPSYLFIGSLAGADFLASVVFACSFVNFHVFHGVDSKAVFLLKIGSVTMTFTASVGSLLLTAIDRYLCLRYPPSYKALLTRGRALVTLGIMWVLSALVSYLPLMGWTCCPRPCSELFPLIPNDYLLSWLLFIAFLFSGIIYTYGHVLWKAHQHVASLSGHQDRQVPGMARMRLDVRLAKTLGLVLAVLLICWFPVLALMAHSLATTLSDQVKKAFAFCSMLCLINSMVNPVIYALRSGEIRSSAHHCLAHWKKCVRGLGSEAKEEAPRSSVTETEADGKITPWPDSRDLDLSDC
T7 sequence (Q9HC97 whole entry): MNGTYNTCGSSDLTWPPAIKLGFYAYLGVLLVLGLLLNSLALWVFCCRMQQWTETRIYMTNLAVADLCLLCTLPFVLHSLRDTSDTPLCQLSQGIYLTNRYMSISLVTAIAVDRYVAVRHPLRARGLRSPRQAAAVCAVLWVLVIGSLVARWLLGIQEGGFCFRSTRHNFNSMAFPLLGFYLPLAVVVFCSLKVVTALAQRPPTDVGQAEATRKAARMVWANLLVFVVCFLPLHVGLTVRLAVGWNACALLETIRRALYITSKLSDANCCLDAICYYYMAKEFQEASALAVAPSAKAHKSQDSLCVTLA
Chain of Nucleotide-binding oligomerization domain-containing protein 2 (Q9HC29 whole entry, the tested form may be a part): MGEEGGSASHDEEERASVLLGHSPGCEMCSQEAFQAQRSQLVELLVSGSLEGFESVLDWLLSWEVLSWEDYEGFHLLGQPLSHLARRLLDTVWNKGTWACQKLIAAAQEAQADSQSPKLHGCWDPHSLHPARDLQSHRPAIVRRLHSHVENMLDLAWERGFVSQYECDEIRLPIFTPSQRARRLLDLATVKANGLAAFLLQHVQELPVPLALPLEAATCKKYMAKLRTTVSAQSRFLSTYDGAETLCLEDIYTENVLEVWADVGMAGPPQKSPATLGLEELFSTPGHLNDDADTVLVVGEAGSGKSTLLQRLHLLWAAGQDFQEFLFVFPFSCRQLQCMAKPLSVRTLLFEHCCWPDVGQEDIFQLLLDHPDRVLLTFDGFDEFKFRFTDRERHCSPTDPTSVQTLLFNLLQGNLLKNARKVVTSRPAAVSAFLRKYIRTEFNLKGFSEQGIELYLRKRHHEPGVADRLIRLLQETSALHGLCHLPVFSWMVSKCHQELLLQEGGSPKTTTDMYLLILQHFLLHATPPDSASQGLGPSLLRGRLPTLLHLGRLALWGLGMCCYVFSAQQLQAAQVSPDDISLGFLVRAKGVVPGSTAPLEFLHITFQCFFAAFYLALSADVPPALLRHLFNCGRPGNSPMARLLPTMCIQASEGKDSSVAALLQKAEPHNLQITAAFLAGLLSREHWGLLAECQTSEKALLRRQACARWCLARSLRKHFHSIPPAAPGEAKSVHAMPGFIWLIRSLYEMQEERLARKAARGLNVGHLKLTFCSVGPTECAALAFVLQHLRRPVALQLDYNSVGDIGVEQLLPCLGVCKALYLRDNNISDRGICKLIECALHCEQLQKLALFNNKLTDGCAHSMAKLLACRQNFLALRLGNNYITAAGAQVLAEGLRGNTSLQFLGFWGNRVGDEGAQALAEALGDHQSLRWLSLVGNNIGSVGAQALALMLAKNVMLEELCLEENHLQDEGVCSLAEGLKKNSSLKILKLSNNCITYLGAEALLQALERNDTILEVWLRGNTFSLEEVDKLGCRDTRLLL

CCCC1(c2ccccc2)NC(=O)N(CC(=O)c2[nH]c(C)c(C(=O)OCC)c2C)C1=O (configuration not stated)
EC50 [1]: > 20 µM (not active) | EC50 [2]: > 20 µM (not active) | EC50 [3]: 2.66 µM (active)

COc1ccccc1OCC(=O)/C=C1/N(C)c2ccccc2C1(C)C
EC50 [4]: 5.48 µM (active)

COc1ccc2sc(N(CCCN(C)C)C(=O)c3ccc(S(=O)(=O)N4CCc5ccccc5C4)cc3)nc2c1
EC50 [5]: 2.75 µM (inconclusive) | EC50 [6]: 10 µM (active) | EC50 [7]: 0.228 µM (active) | EC50 [8]: 5.73 µM (active) | EC50 [9]: 4.5 µM (inconclusive) | EC50 [10]: 5.14 µM (inconclusive) | IC50 [11]: > 20 µM (inactive) | IC50 [12]: 8.44 µM (active) | IC50 [13]: 8.54 µM (active) | EC50 [14]: > 100 µM (inactive) | AC50 [15]: 6.44 µM (active) | AC50 [16]: 3.7 µM (active) | AC50 [17]: 9.11 µM (active) | AC50 [18]: 8.3 µM (active) | AC50 [19]: 6.84 µM (active)

CC(C)Oc1ccc(S(=O)(=O)N2CCOCC2)cc1NC(=O)c1cc2ccccc2s1
IC50 [20]: > 32 µM (inactive) | EC50 [21]: > 32 µM (inactive) | EC50 [22]: > 32 µM (inactive) | EC50 [23]: > 32 µM (inactive) | IC50 [24]: > 32 µM (inactive) | EC50 [25]: > 32 µM (inactive) | IC50 [26]: > 32 µM (inactive)

Cc1cc(N/N=C/c2ccccc2[N+](=O)[O-])nc(-n2nc(C)cc2C)n1
EC50 [27]: 13.3 µM (active) | EC50 [28]: 6.21 µM (active) | IC50 [29]: 15.6 µM (active) | EC50 [30]: 13.1 µM (active) | EC50 [31]: > 120 µM (not active) | IC50 [32]: > 20 µM (inactive) | EC50 [33]: > 20 µM (inactive) | IC50 [34]: 6.54 µM (inactive) | EC50 [7]: 2.26 µM (active) | IC50 [35]: > 20 µM (inactive) | CC50 [36]: 15.5 µM (active) | EC50 [8]: 7.48 µM (active) | CC50 [37]: 4.01 µM (active) | CC50 [38]: 6.96 µM (active) | IC50 [39]: 0.6 µM (active) | AC50 [40]: 2.77 µM (active)
